Assay results taken from PMC9637228, “Elucidating host cell response pathways and repurposing therapeutics for SARS-CoV-2 and other coronaviruses” (Scientific Reports, 2022).
Entries after “also recorded” stand apart in the source; their conditions may differ. Where a name gives a salt, the structure may show the parent alone. Read-outs that look alike come from different tables or passages of the source.

Assays:
Vero cells = assay: Cytotoxicity (cell viability) in the SARS-CoV-2 Vero cell assay; conditions: Table 2 test
SARS-CoV-2 [1] = assay: microbe, parasite or virus in culture; format: cell-based; conditions: for IC50: SARS-CoV-2 infected Vero cells; for anti-SARS-CoV-2 activity (in words): Vero cell assay
HCoV-229E = assay: Anti-HCoV-229E compound testing in MRC5 cells (Cell-Titer Glo); format: cell-based; conditions: for EC50: Human coronavirus 229E; for activity against HCoV-229E (in words): MRC5 cells
Protocol: (§1) Human lung fibroblast MRC5 cells were cultured in a 96-well plate at 10,000 cells/well in EMEM + 10% FBS overnight. The next day the culture medium was removed from each well and compounds in EMEM + 2% FBS + 0.5% DMSO were added. Each drug was tested on its own 96 well plate. Each plate contained 3 wells of uninfected cells without DMSO, 3 wells of uninfected cells with 0.5% DMSO, 3 wells of infected cells with no DMSO, and 3 wells of infected cells with 0.5% DMSO. Experimental compounds were tested in triplicate at each concentration. Tanespimycin, bortezomib, and homoharringtonine were tested using 2 µM starting concentration, 8-point, threefold serial dilution. After a 1-h pre-incubation with testing compounds, HCoV-229E or HCoV-OC43 viruses at an MOI of 0.01 were added to the culture with compounds for another 1 h. Cell-Titer Glo assay was added after additional incubation time with compounds of interest (HCoV-229E for 96 h and HCoV-OC43 for 120 h). Assay readout was performed using luminescence measurement on a Tecan Spark plate reader.
(§2) CC50 values were determined by applying nonlinear fit of luminescence readouts from uninfected, compound-treated wells against compound concentration. Likewise, EC50 values were determined by nonlinear fit of luminescence readouts from virus-infected, compound-treated wells. Nonlinear regression models were applied for derivation of EC50 and CC50 values respectively, based on built-in equations of Prism Version 8.2.1 (GraphPad Software, San Diego, CA). SI calculated as the ratio of CC50 to EC50.

[2] = Cytotoxicity in uninfected, compound-treated MRC5 cells (Cell-Titer Glo); conditions: human
HCoV-OC43 = assay: Anti-HCoV-OC43 compound testing in MRC5 cells (Cell-Titer Glo); format: cell-based; conditions: for activity against HCoV-OC43 (in words): MRC5 cells
Protocol: as §1, §2

[3] = Cytotoxicity (cell viability) in the SARS-CoV-2 Vero cell assay; conditions: African green monkey, Vero cells
[4] = human, in vivo
in vitro = conditions: African green monkey, Vero cells
[5] = Clinical dosing estimation of compounds (clinical exposure, Cmax); conditions: calculated from published Cmax and molecular weight
SARS-CoV-2 [6] = conditions: read-out: reported IC50; cited from earlier work
SARS-CoV-1 = conditions: 10 μM, Huh-7 cells; cited from earlier work
MERS-CoV = conditions: 10 μM, Huh-7 cells; cited from earlier work
SARS-CoV-2 [7] = conditions: 10 μM, Huh-7 cells; cited from earlier work
[8] = MRC5 cells infected with HCoV-229E, MOI 0.01, 96 h, read-out: EC50
[9] = uninfected MRC5 lung fibroblast cells
[10] = Betacoronavirus 1, MRC5 cells infected with HCoV-OC43, MOI 0.01, 120 h, read-out: EC50
[11] = Severe acute respiratory syndrome coronavirus 2, Vero, Round 1, 24 h, 1-h preincubation, read-out: IC50
[12] = Severe acute respiratory syndrome coronavirus 2, Vero, Round 2, 24 h, 1-h preincubation, read-out: IC50
[13] = Severe acute respiratory syndrome coronavirus 2, Vero, 24 h, Table 2 test (average reversal score predicted compounds)
[14] = Severe acute respiratory syndrome coronavirus 2, Vero, Round 1, 24 h, 1-h preincubation
[15] = Severe acute respiratory syndrome coronavirus 2, Vero, Round 2, 24 h, 1-h preincubation

## N[C@@H]1CCCN(c2c(/C=C3\SC(=O)NC3=O)cccc2-c2ccccc2)C1 [AZD-1208]
Vero cells
  CC50: > 50 µM
SARS-CoV-2 [1]; Table 2 test (average reversal score predicted compounds), read-out: IC50
  IC50: 27.3 µM

## CC(C)C[C@H](NC(=O)[C@H](Cc1ccccc1)NC(=O)c1cnccn1)B(O)O [Bortezomib]
HCoV-229E; [8]
  EC50: 0.252 µM
HCoV-229E
  activity against HCoV-229E (in words): no activity
HCoV-229E; listed as bortezomib
  activity against HCoV-229E (in words): did not find bortezomib to be effective
[2]; [9]
  CC50 at 96 h: 0.536 µM
  CC50 at 120 h: 0.591 µM
HCoV-OC43; [10]
  EC50: 0.666 µM
HCoV-OC43
  activity against HCoV-OC43 (in words): no activity
HCoV-OC43; listed as bortezomib
  activity against HCoV-OC43 (in words): did not find bortezomib to be effective
[3]; CC50, Round 1
  CC50 at 24 h: > 50 µM
[3]; CC50, Round 2
  CC50 at 24 h: > 50 µM
[4]
  Clinical Exposure: 0.29 µM
[4]; iv
  Clinical Exposure: approximately 580 nM
SARS-CoV-2 [1]; [11]
  IC50: 1.39 µM
SARS-CoV-2 [1]; [12]
  IC50: 3.42 µM
SARS-CoV-2 [1]
  anti-SARS-CoV-2 activity (in words): showed efficacy in controlling viral load

## CCN(CC)CCCC(C)Nc1ccnc2cc(Cl)ccc12 (stereo not shown) [Chloroquine]
In vitro; CC50, Round 1
  CC50: 128 µM
In vitro; CC50, Round 2
  CC50: > 150 µM
In vitro; CC50, Table 2 test
  CC50: > 150 µM
SARS-CoV-2 [1]; [13]
  IC50: 11.3 µM
SARS-CoV-2 [1]; [14]
  IC50: 12 µM
SARS-CoV-2 [1]; [15]
  IC50: 9.8 µM

## Cc1nc(Nc2ncc(C(=O)Nc3c(C)cccc3Cl)s2)cc(N2CCN(CCO)CC2)n1 [Dasatinib]
[3]; CC50, Round 1
  CC50 at 24 h: 13.2 µM
SARS-CoV-2 [1]; [11]
  IC50: 19.7 µM

## CC(C)c1cc(-c2n[nH]c(=O)n2-c2ccc3c(ccn3C)c2)c(O)cc1O [Ganetespib]
[3]; CC50, Round 2
  CC50 at 24 h: 28.9 µM
SARS-CoV-2 [1]; [12]
  IC50: 35.5 µM
SARS-CoV-2 [1]
  anti-SARS-CoV-2 activity (in words): no activity; also recorded: neither tanespimycin nor a second generation HSP90 inhibitor ganetespib exhibited anti-viral efficacy

## COC(=O)C[C@](O)(CCCC(C)(C)O)C(=O)O[C@@H]1C(OC)=C[C@]23CCCN2CCc2cc4c(cc2[C@H]13)OCO4 [Homoharringtonine]
HCoV-229E; MRC5
  EC50: < 0.1 µM
HCoV-229E; [8]
  EC50: 0.0511 µM
HCoV-229E
  activity against HCoV-229E (in words): highly effective
[2]; [9]
  CC50 at 96 h: 0.205 µM
  CC50 at 120 h: 0.167 µM
HCoV-OC43; Betacoronavirus 1, OC43, MRC5
  EC50: < 0.1 µM
HCoV-OC43; [10]
  EC50: 0.126 µM
HCoV-OC43
  activity against HCoV-OC43 (in words): highly effective
[5]
  Clinical Exposure: 0.046 µM
[3]; CC50, Round 1
  CC50 at 24 h: 2.14 µM
[3]; CC50, Round 2
  CC50 at 24 h: 6.22 µM
SARS-CoV-2 [1]; SARS-CoV-2, Vero cells, average of the rounds
  average EC50/IC50: under 300 nM
SARS-CoV-2 [1]; [14]
  IC50: 0.16 µM
SARS-CoV-2 [1]; [15]
  IC50: 0.26 µM
SARS-CoV-2 [1]
  anti-SARS-CoV-2 activity (in words): highly effective

## CC(C)C[C@H](NC(=O)CNC(=O)c1cc(Cl)ccc1Cl)B(O)O [Ixazomib]
[3]; CC50, Round 2
  CC50 at 24 h: > 50 µM
SARS-CoV-2 [1]; [12]
  IC50: 11.7 µM
SARS-CoV-2 [1]
  anti-SARS-CoV-2 activity (in words): showed efficacy in controlling viral load

## CCOC(=O)C1=C(C)NC(C)=C(C(=O)OCC)C1c1ccccc1/C=C/C(=O)OC(C)(C)C [Lacidipine]
[3]; CC50, Round 1
  CC50 at 24 h: 20.2 µM
[4]
  Clinical Exposure: 0.003 to 0.013 µM
SARS-CoV-2 [1]; [11]
  IC50: 14.9 µM

## CC[C@@H](C(N)=O)N1CCCC1=O [Levetiracetam]
[3]; CC50, Table 2 test
  CC50 at 24 h: > 50 µM
SARS-CoV-2 [1]; [13]
  IC50: > 50 µM
SARS-CoV-2 [1]
  anti-SARS-CoV-2 activity (in words): no anti-viral activity
SARS-CoV-2 [1]; listed as levetiracetam
  anti-SARS-CoV-2 activity (in words): did not show meaningful anti-SARS-CoV-2 activity; also recorded: did not result in a meaningful effect on viral production

## Cc1cccc(C)c1OCC(=O)N[C@@H](Cc1ccccc1)[C@@H](O)C[C@H](Cc1ccccc1)NC(=O)[C@H](C(C)C)N1CCCNC1=O [Lopinavir]
[3]; CC50, Round 2
  CC50 at 24 h: > 50 µM
[3]; CC50, Table 2 test
  CC50 at 24 h: > 50 µM
SARS-CoV-2 [1]; [13]
  IC50: 12.6 µM
SARS-CoV-2 [1]; [15]
  IC50: 13.5 µM

## Cc1ccc(Cl)c(Nc2ccccc2C(=O)O)c1Cl [Meclofenamic acid sodium salt]
[3]; CC50, Table 2 test
  CC50 at 24 h: > 50 µM

## C#CCC(Cc1cnc2nc(N)nc(N)c2n1)c1ccc(C(=O)N[C@@H](CCC(=O)O)C(=O)O)cc1 (stereo partly shown) [Pralatrexate]
SARS-CoV-2 [6]
  IC50: 0.008 µM

## CCC(CC)COC(=O)[C@H](C)N[P@](=O)(OC[C@H]1O[C@@](C#N)(c2ccc3c(N)ncnn23)[C@H](O)[C@@H]1O)Oc1ccccc1 [Remdesivir]
[3]; CC50, Round 1
  CC50 at 24 h: > 50 µM
[3]; CC50, Round 2
  CC50 at 24 h: > 50 µM
[3]; CC50, Table 2 test
  CC50 at 24 h: > 50 µM
SARS-CoV-2 [1]; [13]
  IC50: 8.58 µM
SARS-CoV-2 [1]; [14]
  IC50: 12.1 µM
SARS-CoV-2 [1]; [15]
  IC50: 7.45 µM

## O=C(O)c1ccccc1Nc1cccc(OCc2ccc3ccccc3n2)c1 [SR-2640 hydrochloride]
[3]; CC50, Table 2 test
  CC50 at 24 h: > 50 µM
SARS-CoV-2 [1]; [13]
  IC50: 24.2 µM
SARS-CoV-2 [1]
  anti-SARS-CoV-2 activity (in words): did not result in a meaningful effect on viral production

## N[C@@H](CC(=O)N1CCn2c(nnc2C(F)(F)F)C1)Cc1cc(F)c(F)cc1F [Sitagliptin]
[3]; CC50, Table 2 test
  CC50 at 24 h: > 50 µM
SARS-CoV-2 [1]; Severe acute respiratory syndrome coronavirus 2, Vero, 24 h, Table 2 test (average reversal score predicted compounds), read-out: IC50
  IC50: > 50 µM
SARS-CoV-2 [1]
  anti-SARS-CoV-2 activity (in words): did not show meaningful anti-SARS-CoV-2 activity

## C=CCNC1=C2C[C@@H](C)C[C@H](OC)[C@H](O)[C@@H](C)/C=C(\C)[C@H](OC(N)=O)[C@@H](OC)/C=C\C=C(/C)C(=O)NC(=CC1=O)C2=O [Tanespimycin]
HCoV-229E; MRC5
  EC50: < 0.001 µM
HCoV-229E; MRC5, 96 h
  EC50: 0.0036 µM
HCoV-229E
  activity against HCoV-229E (in words): effective
HCoV-229E; listed as tanespimycin
  activity against HCoV-229E (in words): highly potent
[2]
  CC50 at 96 h: 0.182 µM
  CC50 at 120 h: 0.253 µM
HCoV-OC43; Betacoronavirus 1, OC43, MRC5
  EC50: < 0.001 µM
HCoV-OC43; [10]
  EC50: 0.0019 µM
HCoV-OC43
  activity against HCoV-OC43 (in words): effective
HCoV-OC43; listed as tanespimycin
  activity against HCoV-OC43 (in words): highly potent
SARS-CoV-1
  inhibition of viral activities of SARS-CoV-1: effectively inhibited
[3]; CC50, Round 2
  CC50 at 24 h: > 50 µM
MERS-CoV
  inhibition of viral activities of MERS-CoV: effectively inhibited
SARS-CoV-2 [7]
  inhibition of viral activities of SARS-CoV-2: effectively inhibited
SARS-CoV-2 [1]; [12]
  IC50: 31.3 µM
SARS-CoV-2 [1]
  anti-SARS-CoV-2 activity (in words): no activity
SARS-CoV-2 [1]; listed as tanespimycin
  anti-SARS-CoV-2 activity (in words): neither tanespimycin nor a second generation HSP90 inhibitor ganetespib exhibited anti-viral efficacy

## CC(=O)Nc1cccc(-n2c(=O)n(C3CC3)c(=O)c3c(Nc4ccc(I)cc4F)n(C)c(=O)c(C)c32)c1 [Trametinib]
[5]
  Clinical Exposure: 0.045 µM
[3]; CC50, Round 1
  CC50 at 24 h: > 50 µM
SARS-CoV-2 [1]; [11]
  IC50: 15 µM
